According to patent US12565497B2 (Hoffmann-La Roche Inc., priority 2020, dated 2026):

Target: Recombinant human Mat2a (Homo sapiens (Human), UniProt P31153)
Experiment: Determination of Mat2A activity (384 well absorbance-based assay, Biomol Green)
Format: biochemical
Conditions: 12.5 nM Mat2A, 100 μM ATP and Methionine, 2% DMSO, 120 minutes at RT, absorbance at 635 nm; read-out: MAT2A_LEC IC50 (uM) (Num)
Procedure: Determination of Mat2A Activity
Measurement of Mat2A inhibition is performed in 384 well format absorbance-based assay. Recombinant human Mat2a (12.5 nM) and serial diluted compounds in DMSO (range of concentrations from 10 μM to 508 pM) or controls (DMSO) are incubated for 15 minutes at room temperature (RT) in assay buffer containing 50 mM HEPES pH 7.5, 50 mM KCl, 50 mM MgCl2, 0.01%Tween 20 and 10 mM DTT. The reaction is initiated by the addition of the combined substrates ATP and Methionine, each at a final concentration of 100 μM. Final assay condition are 12.5 nM Mat2A, 100 μM ATP and Methionine Substrates and 2% DMSO. After 120 minutes of incubation at RT, the reaction is stopped by the addition of Biomol Green. The absorbance signal is measured at λ=635 nm with a multiplate reader (BMG Pherastar reader or equivalent) after 30 min of equilibration at RT.

Recombinant human Mat2a, sequence (P31153 whole entry): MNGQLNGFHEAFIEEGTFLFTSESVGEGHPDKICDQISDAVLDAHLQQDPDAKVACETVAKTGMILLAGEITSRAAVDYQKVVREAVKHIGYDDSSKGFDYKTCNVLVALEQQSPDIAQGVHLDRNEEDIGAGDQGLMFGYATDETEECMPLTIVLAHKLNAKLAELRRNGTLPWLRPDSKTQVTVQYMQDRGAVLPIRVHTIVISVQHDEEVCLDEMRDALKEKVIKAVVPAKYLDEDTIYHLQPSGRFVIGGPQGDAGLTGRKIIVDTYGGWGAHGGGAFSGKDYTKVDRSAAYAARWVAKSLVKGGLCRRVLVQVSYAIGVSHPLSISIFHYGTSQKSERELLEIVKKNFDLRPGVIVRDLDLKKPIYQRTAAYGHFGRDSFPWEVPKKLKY

| Structure (SMILES) | IC50 |
| --- | --- |
| Cc1cc(-c2nc(Cl)cc3[nH]nc(C4CC4)c23)ccc1S(C)(=O)=O [Example 34, 6-chloro-3-cyclopropyl-4-(3-methyl-4-methylsulfonylphenyl)-1H-pyrazolo[4,3-c]pyridine] | < 0.013 µM |
| Cc1cc(-c2nccc3[nH]nc(OC(F)F)c23)ccc1S(=O)(=O)C1COC1 [Example 35, 3-(difluoromethoxy)-4-[3-methyl-4-(oxetan-3-ylsulfonyl)phenyl]-1H-pyrazolo[4,3-c]pyridine] | 0.12 µM |
| Cc1cc(-c2nccc3[nH]nc(OC(F)F)c23)ccc1S(=O)(=O)CCO [Example 36, 2-[4-[3-(difluoromethoxy)-1H-pyrazolo[4,3-c]pyridin-4-yl]-2-methyl-phenyl]sulfonylethanol] | 0.051 µM |
| Cc1cc(-c2nccc3[nH]nc(OC(F)F)c23)ccc1S(=O)(=O)C1(C)CC1 [Example 37, 3-(difluoromethoxy)-4-[3-methyl-4-(1-methylcyclopropyl)sulfonyl-phenyl]-1H-pyrazolo[4,3-c]pyridine] | 0.1 µM |
| COCS(=O)(=O)c1ccc(-c2nccc3[nH]nc(OC(F)F)c23)cc1C [Example 38, 3-(difluoromethoxy)-4-[4-(methoxymethylsulfonyl)-3-methyl-phenyl]-1H-pyrazolo[4,3-c]pyridine] | 0.021 µM |
| COc1ncc2[nH]nc(C(F)(F)F)c2c1-c1ccc(S(C)(=O)=O)c(C)c1 [Example 39, 5-methoxy-4-(3-methyl-4-(methylsulfonyl)phenyl)-3-(trifluoromethyl)-1H-pyrazolo[3,4-c]pyridine] | < 0.013 µM |
| Cc1cc(-c2nccc3[nH]cc(C(F)(F)F)c23)ccc1S(C)(=O)=O [Example 40, 4-(3-methyl-4-(methylsulfonyl)phenyl)-3-(trifluoromethyl)-1H-pyrrolo[3,2-c]pyridine] | 0.029 µM |
| COCc1ncc2[nH]nc(C3CC3)c2c1-c1ccc(S(C)(=O)=O)c(C)c1 [Example 41, 3-cyclopropyl-5-(methoxymethyl)-4-(3-methyl-4-(methylsulfonyl)phenyl)-1H-pyrazolo[3,4-c]pyridine] | 0.14 µM |
| CCS(=O)(=O)c1ccc(-c2c(C#N)ncc3[nH]nc(C4CC4)c23)cc1C [Example 42, 3-cyclopropyl-4-(4-ethylsulfonyl-3-methyl-phenyl)-1H-pyrazolo[3,4-c]pyridine-5-carbonitrile] | < 0.013 µM |
| Cc1cc(-c2c(C#N)ncc3[nH]nc(C4CC4)c23)ccc1S(=O)(=O)C1CC1 [Example 43, 3-cyclopropvl-4-(4-cyclopropylsulfonyl-3-methyl-phenyl)-1H-pyrazolo[3,4-c]pyridine-5-carbonitrile] | < 0.013 µM |
| Cc1cc(-c2c(S(C)(=O)=O)ccc3[nH]nc(C(F)(F)F)c23)ccc1S(C)(=O)=O [Example 44, 4-(3-methyl-4-(methylsulfonyl)phenyl)-5-(methylsulfonyl)-3-(trifluoromethyl)-1H-indazole] | 0.017 µM |
| Cc1cc(-c2c(C#N)ccc3[nH]cc(C4CC4)c23)ccc1S(C)(=O)=O [Example 45, 3-cyclopropyl-4-(3-methyl-4-methylsulfonylphenyl)-1H-indole-5-carbonitrile] | 0.02 µM |
| CNC(=O)c1ncc2[nH]nc(C3CC3)c2c1-c1ccc(S(=O)(=O)C2CC2)c(C)c1 [Example 46, 3-cyclopropyl-4-(4-cyclopropylsulfonyl-3-methyl-phenyl)-N-methyl-1H-pyrazolo[3,4-c]pyridine-5-carboxamide] | < 0.013 µM |
| Cc1cc(-c2c(C#N)ncc3[nH]nc(C4CC4)c23)c(F)cc1S(C)(=O)=O [Example 47, 3-cyclopropyl-4-(2-fluoro-5-methyl-4-methylsulfonyl-phenyl)-1H-pyrazolo[3,4-c]pyridine-5-carbonitrile] | 0.017 µM |
| CN(C)S(=O)(=O)c1ccc(-c2nccc3[nH]nc(OC(F)F)c23)cc1C(F)F [Example 48, 4-[3-(difluoromethoxy)-1H-pyrazolo[4,3-c]pyridin-4-yl]-2-(difluoromethvl)-N,N-dimethyl-benzenesulfonamide] | 0.13 µM |
| Cc1cc(-c2c(C#N)ncc3[nH]nc(C4CC4)c23)ccc1S(=O)(=O)C(F)F [Example 50, 3-cyclopropyl-4-[4-(difluoromethylsulfonyl)-3-methyl-phenyl]-1H-pyrazolo[3,4-c]pyridine-5-carbonitrile] | < 0.013 µM |
| CNC(=O)c1ncc2[nH]nc(C3CC3)c2c1-c1ccc(S(C)(=O)=O)c(C(F)F)c1 [Example 51, 3-cyclopropyl-4-[3-(difluoromethyl)-4-methylsulfonyl-phenyl]-N-methyl-1H-pyrazolo[3,4-c]pyridine-5-carboxamide] | < 0.013 µM |
| Cc1cc(-c2c(C#N)ncc3[nH]nc(OC(F)F)c23)ccc1S(C)(=O)=O [Example 52, 3-(difluoromethoxy)-4-(3-methyl-4-methylsulfonyl-phenyl)-1H-pyrazolo[3,4-c]pyridine-5-carbonitrile] | < 0.013 µM |
| Cc1cc([S+](C)[O-])c(C(F)F)cc1-c1c(C#N)ncc2[nH]nc(OC(F)F)c12 (stereo not shown) [Example 53, 3-(difluoromethoxy)-4-[5-(difluoromethyl)-2-methyl-4-methylsulfinyl-phenyl]-1H-pyrazolo[3,4-c]pyridine-5-carbonitrile] | 0.062 µM |
| COc1ncc2[nH]nc(C(F)(F)F)c2c1-c1ccc(S(C)(=O)=O)c(C(F)F)c1 [Example 54, 4-[3-(difluoromethyl)-4-methylsulfonyl-phenyl]-5-methoxy-3-(trifluoromethyl)-1H-pyrazolo[3,4-c]pyridine] | 0.015 µM |
| Cc1cc(-c2c(S(C)(=O)=O)ccc3[nH]nc(OC(F)F)c23)ccc1S(=O)(=O)C1CC1 [Example 55, 4-(4-cyclopropylsulfonyl-3-methyl-phenyl)-3-(difluoromethoxy)-5-methylsulfonyl-1H-indazole] | < 0.013 µM |
| Cc1cc(-c2nccc3[nH]nc(Br)c23)ccc1S(C)(=O)=O [Example 56, 3-bromo-4-(3-methyl-4-(methylsulfonyl)phenyl)-1H-pyrazolo[4,3-c]pyridine] | 0.19 µM |
| Cc1cc(-c2nccc3[nH]nc(OC(F)F)c23)ccc1S(C)(=O)=O [Example 57, 3-(difluoromethoxy)-4-(3-methyl-4-(methylsulfonyl)phenyl)-1H-pyrazolo[4,3-c]pyridinepyridine] | < 0.013 µM |
| COc1n[nH]c2ccnc(-c3ccc(S(C)(=O)=O)c(C)c3)c12 [Example 58, 3-methoxy-4-(3-methyl-4-(methylsulfonyl)phenyl)-1H-pyrazolo[4,3-c]pyridine] | 0.24 µM |
| CS(=O)(=O)c1ccc(-c2nccc3[nH]nc(C4CC4)c23)cc1N [Example 59, 5-(3-cyclopropyl-1H-pyrazolo[4,3-c]pyridin-4-yl)-2-(methylsulfonyl)aniline] | 0.26 µM |
| Cc1cc(-c2nccc3[nH]nc(S(C)(=O)=O)c23)ccc1S(C)(=O)=O [Example 60, 4-(3-methyl-4-(methylsulfonyl)phenyl)-3-(methylsulfonyl)-1H-pyrazolo[4,3-c]pyridine] | 0.29 µM |
| Cc1cc(-c2nccc3[nH]nc(C#N)c23)ccc1S(C)(=O)=O [Example 61, 4-(3-methyl-4-(methylsulfonyl)phenyl)-1H-pyrazolo[4,3-c]pyridine-3-carbonitrile] | 0.25 µM |
| Cc1cc(-c2c(C(=O)O)ncc3[nH]nc(C4CC4)c23)ccc1S(C)(=O)=O [Example 62, 3-cyclopropyl-4-(3-methyl-4-(methylsulfonyl)phenyl)-1H-pyrazolo[3,4-c]pyridine-5-carboxylic acid] | < 0.013 µM |
